This assay relates to Lewis lung carcinoma i.m., BDF1 mice, T/C %. Description: NCI In Vivo Anticancer Drug Screen. Data for tumor model Lewis Lung Carcinoma (intramuscular) in B6D2F1 (BDF1) mice. To be noted: schedule: Q01DX011 (ip). Put shortly: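 Transplantable tumour model; readout survival or tumour size; value = treated (T) / vehicle control (C).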
[1] abbreviates: endpoint: median survival time, dose: 4.0 mg/kg/injection, vehicle: saline, higher = longer survival.

Molecules are shown by their SMILES. Records with an inconclusive call do not appear.

As to `Oc1c(Cl)cc(Cl)c2cccnc12`, the T/C is, setting by setting: (endpoint: mean tumor weight, dose: 6.25 mg/kg/injection, vehicle: saline with Tween-80, higher = larger tumour) 60 % of control; (endpoint: mean tumor weight, dose: 12.5 mg/kg/injection, vehicle: saline with Tween-80, higher = larger tumour) 19 % of control; (endpoint: median survival time, dose: 6.25 mg/kg/injection, vehicle: saline with Tween-80, higher = longer survival) 122 % of control.

Turning to `Cc1c(O)ccc(=O)n1O`, the T/C was 99 % of control (endpoint: mean tumor weight (est.), dose: 27.5 mg/kg/injection, vehicle: saline, higher = larger tumour); 121 % of control (endpoint: mean tumor weight (est.), dose: 55.0 mg/kg/injection, vehicle: saline, higher = larger tumour); 84 % of control (endpoint: mean tumor weight (est.), dose: 110.0 mg/kg/injection, vehicle: saline, higher = larger tumour); 79 % of control (endpoint: mean tumor weight (est.), dose: 220.0 mg/kg/injection, vehicle: saline, higher = larger tumour); 103 % of control (endpoint: median survival time, dose: 27.5 mg/kg/injection, vehicle: saline, higher = longer survival); 96 % of control (endpoint: median survival time, dose: 55.0 mg/kg/injection, vehicle: saline, higher = longer survival). In addition, the T/C reads like this: (endpoint: median survival time, dose: 110.0 mg/kg/injection, vehicle: saline, higher = longer survival) 98 % of control; (endpoint: median survival time, dose: 220.0 mg/kg/injection, vehicle: saline, higher = longer survival) 121 % of control.

Take `O=c1[nH]c2cc(Cl)ccc2c(CCl)c1Cl`: the T/C reads like this: (endpoint: mean tumor weight, dose: 25.0 mg/kg/injection, vehicle: saline, higher = larger tumour) 112 % of control; (endpoint: mean tumor weight, dose: 50.0 mg/kg/injection, vehicle: saline, higher = larger tumour) 101 % of control; (endpoint: mean tumor weight, dose: 100.0 mg/kg/injection, vehicle: saline, higher = larger tumour) 115 % of control; (endpoint: median survival time, dose: 25.0 mg/kg/injection, vehicle: saline, higher = longer survival) 95 % of control; (endpoint: median survival time, dose: 50.0 mg/kg/injection, vehicle: saline, higher = longer survival) 102 % of control; (endpoint: median survival time, dose: 100.0 mg/kg/injection, vehicle: saline, higher = longer survival) 89 % of control.

As for `CCCCCCCCCCCC[S+](C)C`, the T/C (endpoint: median survival time, dose: 2.0 mg/kg/injection, vehicle: saline, higher = longer survival) is 100 % of control and the T/C under setting [1] is 114 % of control.

For the compound `CCN(CC)CCCC(C)Nc1c2ccccc2nc2c(Cl)cccc12` (stereo not given), the T/C (endpoint: mean tumor weight (est.), dose: 7.5 mg/kg/injection, vehicle: saline, higher = larger tumour) is 81 % of control; the T/C (endpoint: mean tumor weight (est.), dose: 15.0 mg/kg/injection, vehicle: saline, higher = larger tumour) is 96 % of control; the T/C (endpoint: mean tumor weight (est.), dose: 30.0 mg/kg/injection, vehicle: saline, higher = larger tumour) was 95 % of control.

Take `Nc1nc(=O)n(C2OC(CO)C(O)C2O)cc1F` (stereo not given): the T/C is 98 % of control under setting [1]; 117 % of control (endpoint: median survival time, dose: 8.0 mg/kg/injection, vehicle: saline, higher = longer survival); 98 % of control (endpoint: median survival time, dose: 16.0 mg/kg/injection, vehicle: saline, higher = longer survival); 110 % of control (endpoint: median survival time, dose: 32.0 mg/kg/injection, vehicle: saline, higher = longer survival).

On to `NC(C(=O)O)C(F)C(=O)O` (stereo not given), for which the T/C (endpoint: median survival time, dose: 3.12 mg/kg/injection, vehicle: saline, higher = longer survival) was 104 % of control; the T/C (endpoint: median survival time, dose: 6.25 mg/kg/injection, vehicle: saline, higher = longer survival) is 98 % of control; the T/C (endpoint: median survival time, dose: 12.5 mg/kg/injection, vehicle: saline, higher = longer survival) is 103 % of control.

Regarding `CCN(CC)Cc1cc(Nc2c3ccccc3nc3cc(Cl)ccc23)ccc1O`, the T/C (endpoint: mean tumor weight (est.), dose: 35.0 mg/kg/injection, vehicle: saline, higher = larger tumour) is 79 % of control.

In the case of `CCCCC/C(C)=N\Nc1ccccn1`, the T/C is 91 % of control (endpoint: mean tumor weight (est.), dose: 12.5 mg/kg/injection, vehicle: saline with Tween-80, higher = larger tumour); 88 % of control (endpoint: mean tumor weight (est.), dose: 25.0 mg/kg/injection, vehicle: saline with Tween-80, higher = larger tumour); 80 % of control (endpoint: mean tumor weight (est.), dose: 50.0 mg/kg/injection, vehicle: saline with Tween-80, higher = larger tumour); 98 % of control (endpoint: median survival time, dose: 25.0 mg/kg/injection, vehicle: saline with Tween-80, higher = longer survival); 98 % of control (endpoint: median survival time, dose: 50.0 mg/kg/injection, vehicle: saline with Tween-80, higher = longer survival).

For the origin of these results see PubChem BioAssay AID272 (DTP/NCI, 2004).
